Patent publication US20080306285A1, “Heat-Labile Prodrugs” (priority 2007, published 2008)
Like-named read-outs stand apart in the source and are kept apart here.

Experiments:
[1] = Pharmacokinetics of THC aerosol by inhalation in Beagle dogs; type: in vivo; conditions: for time of maximum arterial plasma concentration: arterial blood, FIG. 14; for time of venous plasma concentration peak: venous blood, FIG. 15; for Cmax / Tmax / half-life: plasma (venous); for Cmax / Tmax / half-life / AUC(0-inf): 0.93 mg, inhalation 0.93 mg THC + 0.11 THCA, venous plasma THC; for Fraction of THC Emitted Dose in Exhalation: based on 924 μg THC emitted dose; for BA: inhalation vs IV; for THC in Exhaled Breath: 5 sec breath hold
Method: A study was conducted in order to compare the pharmacokinetics (PK) of delivering THC by inhalation from a thermally labile prodrug to those of an intravenous (IV) bolus. A device consisting of a control electronics PC board, air-flow regulator, inhalation valve, air-flow meter, and indo-tracheal tube was used to generate and administer THC aerosol to Beagle dogs. Two safety mechanisms built into the device prevent harm to the test subject: one that closes the inhalation valve when the selected air volume is delivered to the test subject, and one that vents the system to ambient air if the circuit board loses control over the system (due to power failure, etc.).
The in vivo portion of the study was designed with a target THC emitted dose of 0.98 mg. Aerosol quality samples were captured prior to and immediately following animal dosing in a manner consistent with previous pre-PK development work and the animal dosing parameters. The emitted dose samples were collected on 2 μm Teflon filters, while the particle size samples were collected using an ACI fitted with glass fiber filters. After aerosol collection, the filters were stored in amber vials in a freezer prior to analysis. All results were within the acceptable range determined from a previous development study.
For the inhalation portion, four Beagle dogs (2 male/2 female) were exposed to THC aerosol by forced maneuver inhalation exposure. A breath hold of 5 sec was followed by exhalation into a Teflon filter. The filters were placed in vials for analysis using HPLC. Body weight, inhalation volume, exhalation volume, and quantity of THC in exhalation for each test subject are set forth in Table Three, below.
(§1) All blood samples measured 0.5 mL and were collected in plastic vials containing K2EDTA as the anticoagulant. The vials were placed on wet ice until centrifugation to recover the plasma. The plasma samples were analyzed for THC, THCA, and the major metabolite (11-nor-9-carboxy-Δ^9-tetrahydrocannabinol) of THC using a mass spectrometry method.
Immediately after simultaneous administration of the drug and the prodrug, blood samples were drawn from both the arterial and venous circulation of the test subjects. Arterial sampling was more frequent at the early time points and was stopped at 10 minutes, while venous sampling continued to 24 hours.
(§2) Non-compartmental modeling of the venous THC plasma concentrations was performed using WinNonlin™ (WinNonlin Professional Version 4.1, Pharsight Corp., Mountain View, Calif.). Characterization of the gamma (third) terminal linear phase for the inhalation and IV portions of the study allowed us to compare the inhalation pharmacokinetics to those of IV.

[2] = Physical stability drop tests of THCA coatings; type: physicochemical; conditions: up to 1.0 mg/cm^2 on stainless steel, after 6 months storage at various conditions
Text: An advantage of THCA is that it is a solid that forms a physically stable film, as opposed to Δ^9-THC, which is a viscous oil whose coated films are subject to flow.

[3] = Aerosol particle size by Anderson Cascade Impactor; type: physicochemical; conditions: THC aerosol from THCA film, 1 mg/cm^2, aerosol mass 1 mg, 28.3 L/min
Method: Particle size distribution is characterized by the mass median aerodynamic diameter (MMAD) and the geometric standard deviation (GSD). For thermal condensation aerosols, such as those disclosed herein and in our previous patent applications, particle size is governed by the competing mechanisms of condensation and Brownian aggregation.
All particle size experiments were conducted by vaporizing drug films into an 8-stage Anderson Cascade Impactor (ACI) fitted with a glass fiber filter. The ACI consists of several stages, with each successive stage having a smaller size cutoff. By extracting and determining the mass of drug deposited at each stage, it is possible to estimate the particle size distribution of the aerosol.
An air flow of 28.3 L/min was used to generate the aerosol and distribute it through the ACI. Each stage and filter was extracted with organic solvent and analyzed using HPLC. The MMAD and GSD were calculated from the quantity of aerosol on each stage. The MMAD for the THC aerosol (generated from THCA film, drug loading=1 mg/cm^2; aerosol mass=1 mg) was 2.2 μm and the GSD [84/16] was 2.2. In addition, the fine particle fraction (FPF, MMAD <5 μm) was over 95%. These values are well within the range normally accepted for effective pulmonary deposition.

[4] = Pharmacokinetics of THC IV bolus in Beagle dogs; type: in vivo; conditions: dog, venous plasma, 0.9 mg, IV injection 0.9 mg THC
Method: Two weeks after dosing by inhalation, the same dogs were given a 0.9 mL (adjusted to match the aerosol output measured in the pre- and post-dose aerosol quality testing) bolus IV injection of THC (1 mg/mL THC and sodium ascorbate) in 0.9% NaCl aqueous solution.
as §1, §2

[5] = oral dronabinol formulations of THC, cited from earlier work
[6] = FIG. 16, n=2
[7] = Aerosolization of estradiol-t-BOC-Gly-Gly; type: physicochemical
Method: The prodrug, estradiol-t-BOC-Gly-Gly (shown in FIG. 12 and prepared as described above), was spray coated onto stainless steel test strips (1.347 mg; […] nominal film thickness). The test articles were placed in the screening device and heated by discharging a capacitor through the foils to thermally convert the prodrug back to estradiol and form a condensation aerosol. Tests were conducted on duplicate foils at each of three temperatures (325° C., 350° C., and 380° C.) determined by the discharge voltage of the capacitor. The aerosol was collected with a Teflon filter, and the trapped aerosol was extracted from the collection apparatus using organic solvent and analyzed using HPLC.
FIG. 17 is a bar graph 1700 showing percent estradiol in aerosol 1702 as a function of vaporization temperature 1704 (n=2). FIG. 18 is a bar graph 1800 showing percent prodrug in aerosol 1802 as a function of vaporization temperature 1804 (n=2).

[8] = Beagle, dog, inhaled or intranasal, subject 101
[9] = Beagle, dog, inhaled or intranasal, subject 102
[10] = Beagle, dog, inhaled or intranasal, subject 103
[11] = Beagle, dog, inhaled or intranasal, subject 104
[12] = both sexes, Beagle, dog, inhaled or intranasal, mean of 4 dogs

CCCCCc1cc2c(c(O)c1C(=O)O)C1C=C(C)CCC1C(C)(C)O2 (stereo not shown) [THCA, Δ^9-THC-2-carboxylic acid]
absorption from the lung compared with THC ([1]; inhalation, FIGS. 14 and 15): substantially faster | time of maximum arterial plasma concentration ([1]; inhalation): about 30 seconds | time of venous plasma concentration peak ([1]; inhalation): about 50 seconds | physical stability of coating (drop tests) [2]: physically robust | GSD [84/16] [3]: 2.2 | MMAD [3]: 2.2 μm | fine particle fraction (FPF, MMAD <5 μm) [3]: over 95%

CCCCCc1cc(O)c2c(c1)OC(C)(C)[C@@H]1CCC(C)=C[C@@H]21 [THC, Δ^9-tetrahydrocannabinol]
AUC(0-inf) ([4]; both sexes, mean of 4 dogs): 142 ng·h/mL | Cmax ([4]; both sexes, mean of 4 dogs): 1780 ng/mL | Tmax ([4]; both sexes, mean of 4 dogs): 0.38 min | half-life ([4]; both sexes, mean of 4 dogs): 50.8 min | AUC(0-inf) ([4]; female, subject 103): 139 ng·h/mL | Cmax ([4]; female, subject 103): 1410 ng/mL | Tmax ([4]; female, subject 103): 0.25 min | half-life ([4]; female, subject 103): 51.3 min | AUC(0-inf) ([4]; female, subject 104): 118 ng·h/mL | Cmax ([4]; female, subject 104): 1230 ng/mL | Tmax ([4]; female, subject 104): 0.5 min | half-life ([4]; female, subject 104): 36.6 min | AUC(0-inf) ([4]; male, subject 101): 164 ng·h/mL | Cmax ([4]; male, subject 101): 3770 ng/mL | Tmax ([4]; male, subject 101): 0.25 min | half-life ([4]; male, subject 101): 18.1 min | AUC(0-inf) ([4]; male, subject 102): 146 ng·h/mL | Cmax ([4]; male, subject 102): 697 ng/mL | Tmax ([4]; male, subject 102): 0.5 min | half-life ([4]; male, subject 102): 97.1 min | Cmax [1, 8]: 341 ng/mL | Tmax [1, 8]: 3 min | half-life [1, 8]: 21 min | Cmax [1, 9]: 190 ng/mL | Tmax [1, 9]: 2 min | half-life [1, 9]: 32.5 min | Cmax [1, 10]: 358 ng/mL | Tmax [1, 10]: 2 min | half-life [1, 10]: 22.7 min | Cmax [1, 11]: 253 ng/mL | Tmax [1, 11]: 2 min | half-life [1, 11]: 55.8 min | Fraction of THC Emitted Dose in Exhalation ([1]; subject 101): 2.8% | Fraction of THC Emitted Dose in Exhalation ([1]; subject 102): 3.2% | Fraction of THC Emitted Dose in Exhalation ([1]; subject 103): 2.4% | Fraction of THC Emitted Dose in Exhalation ([1]; subject 104): 1.7% | Cmax [1, 12]: 286 ng/mL | Tmax [1, 12]: 2.3 min | half-life [1, 12]: 33 min | AUC(0-inf) ([1]; both sexes, Beagle, dog, venous plasma, inhaled or intranasal, mean of 4 dogs): 92.5 ng·h/mL | bioavailability ([1]; both sexes, Beagle, dog, venous plasma, inhaled or intranasal, inhalation): 67% | AUC(0-inf) ([1]; female, Beagle, dog, venous plasma, inhaled or intranasal, subject 103): 1140 ng·h/mL | AUC(0-inf) ([1]; female, Beagle, dog, venous plasma, inhaled or intranasal, subject 104): 92.6 ng·h/mL | difference in Tmax between THC and its prodrug Δ^9-THC-2-carboxylic acid ([1]; inhalation): 3 fold | BA ([1]; mean of 4 dogs): 67.4% | BA ([1]; subject 101): 59.7% | BA ([1]; subject 102): 43.9% | BA ([1]; subject 103): 84.5% | BA ([1]; subject 104): 81.6% | THC in Exhaled Breath ([1]; inhalation, subject 101 (M)): 26.2 µg | THC in Exhaled Breath ([1]; inhalation, subject 102 (M)): 29.6 µg | THC in Exhaled Breath ([1]; inhalation, subject 103 (F)): 22.3 µg | THC in Exhaled Breath ([1]; inhalation, subject 104 (F)): 15.8 µg | time of maximum arterial plasma concentration ([1]; inhalation): 90 s | time of venous plasma concentration peak ([1]; inhalation): about 150 seconds | AUC(0-inf) ([1]; male, Beagle, dog, venous plasma, inhaled or intranasal, subject 101): 99.4 ng·h/mL | AUC(0-inf) ([1]; male, Beagle, dog, venous plasma, inhaled or intranasal, subject 102): 64.5 ng·h/mL | bioavailability ([5]; typical): less than 50% | Tmax [5]: up to 5 hours

CC(C)c1cccc(C(C)C)c1OC(=O)OC(C)(C)C [Propofol-t-BOC-Ester, O-(t-butoxycarbonyl)-propofol]
aerosol purity of propofol as a function of vaporization temperature [6]: decrease with increasing vaporization temperature

CC(C)(C)OC(=O)NCC(=O)NCC(=O)Oc1ccc2c(c1)CC[C@@H]1[C@@H]2CC[C@]2(C)[C@@H](O)CC[C@@H]12 [estradiol-t-BOC-Gly-Gly, 3-(t-butoxycarbonyl-glycinyl-glycinate)-estradiol]
estradiol in aerosol ([7]; 325° C., 350° C., and 380° C., n=2, FIG. 17): approximately 94% | unconverted prodrug in captured aerosol ([7]; 325° C., 350° C., and 380° C., n=2, FIG. 18): 1.5-2% | thermal conversion of the precursor to estradiol ([7]; empirical studies): up to 95%
